These are literature values, as cited in patent US20060045857A1, “Sunless tanning composition and methods for using” (priority 2004, published 2006).

The conditions of this data set: in vivo.

“Poly(vinylpyrrolidone/1-hexadecene) [PVPH]”: the dermal toxicity result is “no demonstrable dermal toxicity”.

Turning to “poly(vinylpyrrolidone/1-eicosene) [PVPE]”, the dermal toxicity result was “no demonstrable dermal toxicity”.
